Where a name gives a salt, the structure may show the parent alone. Read-outs that look alike come from different tables or passages of the source.
Tests used:
Serotonin 5-HT2A (human) = Serotonin 5-HT2A (human) (Homo sapiens (Human), UniProt P28223); assay: 5-HT2A receptor binding, [3H]-ketanserin competition in membrane fractions; conditions: for 5-HT2A pKi ± SEM: 1 nM [3H]-ketanserin, Cheng-Prusoff, N=1-3
5-HT1A = 5-HT1A (Homo sapiens (Human), UniProt P08908); assay: 5-HT1A Gi/o-mediated cAMP inhibition, GloSensor assay; assay type: cell-based
5-HT2B = 5-HT2B (Homo sapiens (Human), UniProt P41595); assay: 5-HT2B Gq-mediated calcium flux functional assay; assay type: cell-based
5-HT2A = 5-HT2A (Homo sapiens (Human), UniProt P28223); assay: 5-HT2A Gq-mediated calcium flux functional assay; assay type: cell-based
5-HT2C = 5-HT2C (Homo sapiens (Human), UniProt P28335); assay: 5-HT2C Gq-mediated calcium flux functional assay; assay type: cell-based
[1] = cAMP inhibition, 0.2 μM isoproterenol, IA = Inactive

Chain of 5-HT2C (P28335 whole entry, looked up): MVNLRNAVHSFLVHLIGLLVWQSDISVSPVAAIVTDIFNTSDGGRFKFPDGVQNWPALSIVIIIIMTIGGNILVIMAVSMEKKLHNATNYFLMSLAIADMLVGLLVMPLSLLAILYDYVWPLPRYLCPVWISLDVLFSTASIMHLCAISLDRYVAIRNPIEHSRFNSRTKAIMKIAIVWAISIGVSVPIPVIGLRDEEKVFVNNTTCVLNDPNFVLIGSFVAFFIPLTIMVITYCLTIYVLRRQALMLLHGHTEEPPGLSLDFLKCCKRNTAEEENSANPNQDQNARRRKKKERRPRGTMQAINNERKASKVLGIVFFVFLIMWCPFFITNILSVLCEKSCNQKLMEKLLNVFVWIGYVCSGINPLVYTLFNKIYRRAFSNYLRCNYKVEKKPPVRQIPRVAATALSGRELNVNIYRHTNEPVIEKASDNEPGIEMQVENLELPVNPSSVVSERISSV
Chain of 5-HT2B (P41595 whole entry): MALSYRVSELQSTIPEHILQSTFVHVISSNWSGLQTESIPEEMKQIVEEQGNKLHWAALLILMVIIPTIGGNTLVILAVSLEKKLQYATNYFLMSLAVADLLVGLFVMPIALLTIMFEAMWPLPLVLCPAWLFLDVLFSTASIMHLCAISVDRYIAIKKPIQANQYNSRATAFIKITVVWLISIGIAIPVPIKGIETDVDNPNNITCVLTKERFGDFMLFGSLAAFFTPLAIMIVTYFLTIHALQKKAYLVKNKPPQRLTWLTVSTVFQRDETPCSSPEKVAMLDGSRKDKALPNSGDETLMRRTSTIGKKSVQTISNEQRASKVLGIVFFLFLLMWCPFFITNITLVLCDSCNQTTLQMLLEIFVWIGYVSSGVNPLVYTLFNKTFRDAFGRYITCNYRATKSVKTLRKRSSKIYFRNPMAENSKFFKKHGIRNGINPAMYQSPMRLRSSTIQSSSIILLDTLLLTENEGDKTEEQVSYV

## CCCN(CCc1c[nH]c2ccc(F)cc12)C(C)CC (centres unmarked) (as salt: hydrochloride) [compound 22, N-(2-(5-fluoro-1H-indol-3-yl)ethyl)-N-propylbutan-2-amine]
other
  melting point: 153.2 to 155.4 °C

## CN(CCc1c[nH]c2ccc(F)cc12)C1CSC1 (as salt: HCl) [compound 20, N-(2-(5-fluoro-1H-indol-3-yl)ethyl)-N-methylthietan-3-amine]
other
  melting point: 221 to 223.3 °C

## CC(C1CC1)N(C)CCc1c[nH]c2ccc(F)cc12 (centres unmarked) (as salt: HCl)
other
  melting point: 100.7 to 101.5 °C

## CC(C)N(CCc1c[nH]c2ccc(F)cc12)C1CCC1 (as salt: hydrochloride) [compound 40, N-(2-(5-fluoro-1H-indol-3-yl)ethyl)-N-isopropylcyclobutanamine]
other
  melting point: 191.6 to 193 °C

## CCN(C)CCc1c[nH]c2c(F)cc(F)cc12 (as salt: hydrochloride) [compound 69, 2-(5,7-difluoro-1H-indol-3-yl)-N-ethyl-N-methylethan-1-amine]
other
  melting point: 152.7 to 153.5 °C

## CC(C)CN(C)CCc1c[nH]c2ccc(F)cc12 (as salt: hydrochloride) [compound 39, N-(2-(5-fluoro-1H-indol-3-yl)ethyl)-N,2-dimethylpropan-1-amine]
other
  melting point: 150 to 151.5 °C

## C=CCN(CCC)CCc1c[nH]c2ccc(F)cc12 (as salt: salt) [compound 35, N-(2-(5-fluoro-1H-indol-3-yl)ethyl)-N-propylprop-2-en-1-amine]
other
  melting point: 175.1 to 177.2 °C

## CCCN(CC)CCc1c[nH]c2cc(Cl)c(F)cc12 (as salt: hydrochloride) [compound 37, N-(2-(6-chloro-5-fluoro-1H-indol-3-yl)ethyl)-N-ethylpropan-1-amine]
other
  melting point: 231 to 232.6 °C

## CCCN(CC)CCc1c[nH]c2ccc(F)c(F)c12 (as salt: fumarate) [compound 21, N-(2-(4,5-difluoro-1H-indol-3-yl)ethyl)-N-ethylpropan-1-amine]
other
  melting point: 182.1 to 183.3 °C

## CC(CN)c1c[nH]c2ccc(F)cc12 (centres unmarked) [compound 187, 2-(5-fluoro-1H-indol-3-yl)propan-1-amine]
Serotonin 5-HT2A (human)
  5-HT2A pKi ± SEM: 5.41
5-HT1A
  EC50: 933 nM
5-HT1A; [1]
  5-HT1A-cAMP Emax (% 5-HT): 88.5 ± 2.8 % 5-HT
5-HT2B; IA = Inactive, N=1-3
  5-HT2B-Ca2+ FLUX Emax (% 5-HT): 89.0 ± 1.4 % 5-HT
5-HT2B; IA = Inactive, N=1-3, read-out: 5-HT2B-Ca2+ FLUX pEC50 (converted)
  EC50: 1.26 nM
5-HT2A; IA = Inactive, N=1-3
  5-HT2A-Ca2+ FLUX Emax (% 5-HT): 90.7 ± 2.5 % 5-HT
5-HT2A; IA = Inactive, N=1-3, read-out: 5-HT2A-Ca2+ FLUX pEC50 (converted)
  EC50: 36.3 nM
5-HT2C; IA = Inactive, N=1-3
  5-HT2C-Ca2+ FLUX Emax (% 5-HT): 93.6 ± 0.9 % 5-HT
5-HT2C; IA = Inactive, N=1-3, read-out: 5-HT2C-Ca2+ FLUX pEC50 (converted)
  EC50: 18.6 nM

## CCC(C)N(CC)CCc1c[nH]c2ccc(F)cc12 (centres unmarked) [compound 30, N-ethyl-N-(2-(5-fluoro-1H-indol-3-yl)ethyl)butan-2-amine]
Serotonin 5-HT2A (human)
  5-HT2A pKi ± SEM: 5.70 ± 0.39
5-HT1A
  EC50: 468 nM
5-HT1A; [1]
  5-HT1A-cAMP Emax (% 5-HT): 104.0 ± 3.1 % 5-HT
5-HT2B
  EC50: 3.47 nM
5-HT2B; IA = Inactive, N=1-3
  5-HT2B-Ca2+ FLUX Emax (% 5-HT): 83.8 ± 2.1 % 5-HT
5-HT2A
  EC50: 2.45 nM
5-HT2A; IA = Inactive, N=1-3
  5-HT2A-Ca2+ FLUX Emax (% 5-HT): 93.2 ± 1.7 % 5-HT
5-HT2C
  EC50: 148 nM
5-HT2C; IA = Inactive, N=1-3
  5-HT2C-Ca2+ FLUX Emax (% 5-HT): 72.2 ± 2.9 % 5-HT

## C=CCN(CC)CCc1c[nH]c2ccc(F)cc12 (as salt: hydrochloride) [compound 36, N-ethyl-N-(2-(5-fluoro-1H-indol-3-yl)ethyl)prop-2-en-1-amine]
other
  melting point: 123.7 to 128.5 °C

## CC(C)C(C)N(C)CCc1c[nH]c2ccc(F)cc12 (centres unmarked) (as salt: hydrochloride)
other
  melting point: 157.5 to 158.1 °C

## CCC(C)N(CCc1c[nH]c2ccc(F)cc12)C(C)C (centres unmarked) (as salt: HCl) [compound 32, N-(2-(5-fluoro-1H-indol-3-yl)ethyl)-N-isopropylbutan-2-amine]
other
  melting point: 193.7 to 195 °C

## CCCN(CCc1c[nH]c2ccc(F)cc12)C(C)C (as salt: HCl) [Example 4, N-(2-(5-fluoro-1H-indol-3-yl)ethyl)-N-isopropylpropan-1-amine]
other
  melting point: 155.8 to 158 °C

## CCCN(CCc1c[nH]c2c(F)cccc12)C1CCC1 (as salt: hydrochloride) [compound 162, N-(2-(7-fluoro-1H-indol-3-yl)ethyl)-N-propylcyclobutanamine]
other
  melting point: 231.7 to 237.2 °C

## CCC(C)N(C)CCc1c[nH]c2ccc(F)cc12 (centres unmarked) (as salt: HCl) [Example 3, N-(2-(5-fluoro-1H-indol-3-yl)ethyl)-N-methylbutan-2-amine]
other
  melting point: 136.5 to 142 °C

## CC(C)N(CCc1c[nH]c2ccc(F)cc12)CC1CC1 (as salt: hydrochloride)
other
  melting point: 191 to 192.5 °C

## C=CCN(CCc1c[nH]c2ccc(F)cc12)C1CCC1 (as salt: HCl) [Example 14, N-allyl-N-(2-(5-fluoro-1H-indol-3-yl)ethyl)cyclobutanamine]
other
  melting point: 196.3 to 199 °C

## CCCN(CCC)CCc1c[nH]c2ccc(F)cc12 (as salt: HCl) [Example 5, N-(2-(5-fluoro-1H-indol-3-yl)ethyl)-N-propylpropan-1-amine]
other
  melting point: 187.5 to 188 °C

## CN(C)CCc1c[nH]c2ccc(F)cc12 [Compound 5-F-DMT]
Serotonin 5-HT2A (human)
  5-HT2A pKi ± SEM: 6.65
5-HT1A; [1]
  5-HT1A-cAMP Emax (% 5-HT): 94.2 ± 3.4 % 5-HT
  5-HT1A-cAMP pEC50: 6.69 ± 0.08
5-HT2B; IA = Inactive, N=1-3
  5-HT2B-Ca2+ FLUX Emax (% 5-HT): 61.1 ± 2.0 % 5-HT
  5-HT2B-Ca2+ FLUX pEC50: 8.70 ± 0.11
5-HT2A; IA = Inactive, N=1-3
  5-HT2A-Ca2+ FLUX Emax (% 5-HT): 96.6 ± 1.0 % 5-HT
  5-HT2A-Ca2+ FLUX pEC50: 8.70 ± 0.03
5-HT2C; IA = Inactive, N=1-3
  5-HT2C-Ca2+ FLUX Emax (% 5-HT): 100.3 ± 1.8 % 5-HT
  5-HT2C-Ca2+ FLUX pEC50: 8.8 ± 0.06

## C=CCN(CCc1c[nH]c2ccc(F)cc12)C(C)CC (centres unmarked) (as salt: HCl) [compound 16, N-allyl-N-(2-(5-fluoro-1H-indol-3-yl)ethyl)butan-2-amine]
other
  melting point: 157 to 161.8 °C

## C=CCN(CCc1c[nH]c2ccc(F)cc12)C(C)C (as salt: HCl) [Example 11, N-(2-(5-fluoro-1H-indol-3-yl)ethyl)-N-isopropylprop-2-en-1-amine]
other
  melting point: 132 to 134 °C

## CC(C)N(CC#N)CCc1c[nH]c2ccc(F)cc12 (as salt: HCl) [compound 17, 2-((2-(5-fluoro-1H-indol-3-yl)ethyl)(isopropyl)amino)acetonitrile]
other
  melting point: 147 to 150 °C (dec.)

## CN(CCc1c[nH]c2ccc(F)cc12)C1CC1 (as salt: hydrochloride) [compound 160, N-(2-(5-fluoro-1H-indol-3-yl)ethyl)-N-methylcyclopropanamine]
other
  melting point: 218.8 to 219.3 °C

## CCN(C)CC(=O)c1c[nH]c2ccc(F)cc12
other
  melting point: 160.1 to 164.8 °C

## CCC(C)N(CCc1c[nH]c2ccc(F)cc12)C(C)C (centres unmarked) [compound 32, N-(2-(5-fluoro-1H-indol-3-yl)ethyl)-N-isopropylbutan-2-amine]
Serotonin 5-HT2A (human)
  5-HT2A pKi ± SEM: 5.86 ± 0.16
5-HT1A
  EC50: 1260 nM
5-HT1A; [1]
  5-HT1A-cAMP Emax (% 5-HT): 88.5 ± 2.8 % 5-HT
5-HT2B
  EC50: 0.955 nM
5-HT2B; IA = Inactive, N=1-3
  5-HT2B-Ca2+ FLUX Emax (% 5-HT): 108.0 ± 1.8 % 5-HT
5-HT2A
  EC50: 1.12 nM
5-HT2A; IA = Inactive, N=1-3
  5-HT2A-Ca2+ FLUX Emax (% 5-HT): 106.8 ± 1.7 % 5-HT
5-HT2C
  EC50: 64.6 nM
5-HT2C; IA = Inactive, N=1-3
  5-HT2C-Ca2+ FLUX Emax (% 5-HT): 101.5 ± 2.7 % 5-HT

## CCN(C)CCc1c[nH]c2ccc(F)cc12 [Example 12, N-ethyl-2-(5-fluoro-1H-indol-3-yl)-N-methylethan-1-amine]
Serotonin 5-HT2A (human)
  5-HT2A pKi ± SEM: 6.66 ± 0.12
5-HT1A
  EC50: 75.9 nM
5-HT1A; [1]
  5-HT1A-cAMP Emax (% 5-HT): 91.1 ± 1.7 % 5-HT
5-HT2B
  EC50: 2.29 nM
5-HT2B; IA = Inactive, N=1-3
  5-HT2B-Ca2+ FLUX Emax (% 5-HT): 65.8 ± 1.6 % 5-HT
5-HT2A
  EC50: 1.74 nM
5-HT2A; IA = Inactive, N=1-3
  5-HT2A-Ca2+ FLUX Emax (% 5-HT): 101.8 ± 1.1 % 5-HT
5-HT2C
  EC50: 1.58 nM
5-HT2C; IA = Inactive, N=1-3
  5-HT2C-Ca2+ FLUX Emax (% 5-HT): 117.2 ± 2.5 % 5-HT

## CCCN(CCC)CCc1c[nH]c2ccc(F)cc12 [Example 5, N-(2-(5-fluoro-1H-indol-3-yl)ethyl)-N-propylpropan-1-amine]
Serotonin 5-HT2A (human)
  5-HT2A pKi ± SEM: 6.20
5-HT1A
  EC50: 74.1 nM
5-HT1A; [1]
  5-HT1A-cAMP Emax (% 5-HT): 87.5 ± 1.6 % 5-HT
5-HT2B
  EC50: 0.759 nM
5-HT2B; IA = Inactive, N=1-3
  5-HT2B-Ca2+ FLUX Emax (% 5-HT): 104.1 ± 0.7 % 5-HT
5-HT2A
  EC50: 0.724 nM
5-HT2A; IA = Inactive, N=1-3
  5-HT2A-Ca2+ FLUX Emax (% 5-HT): 106.7 ± 0.8 % 5-HT
5-HT2C
  EC50: 3.39 nM
5-HT2C; IA = Inactive, N=1-3
  5-HT2C-Ca2+ FLUX Emax (% 5-HT): 109.3 ± 3.1 % 5-HT

## C=CCN(C)CCc1c[nH]c2ccc(F)cc12 [Example 10, N-(2-(5-fluoro-1H-indol-3-yl)ethyl)-N-methylprop-2-en-1-amine]
Serotonin 5-HT2A (human)
  Ki: 309 nM
5-HT1A
  EC50: 89.1 nM
5-HT1A; [1]
  5-HT1A-cAMP Emax (% 5-HT): 97.8 ± 2.7 % 5-HT
5-HT2B
  EC50: 0.955 nM
5-HT2B; IA = Inactive, N=1-3
  5-HT2B-Ca2+ FLUX Emax (% 5-HT): 73.8 ± 2.3 % 5-HT
5-HT2A
  EC50: 0.479 nM
5-HT2A; IA = Inactive, N=1-3
  5-HT2A-Ca2+ FLUX Emax (% 5-HT): 100.3 ± 2.2 % 5-HT
5-HT2C
  EC50: 3.02 nM
5-HT2C; IA = Inactive, N=1-3
  5-HT2C-Ca2+ FLUX Emax (% 5-HT): 97.4 ± 2.6 % 5-HT

Reference: patent publication US20240286998A1, “F[…], ANALOGUES THEREOF, AND METHODS USING SAME” (Saint Joseph's University, priority 2021, published 2024)
